Assay results reported in patent US6664267B1, “Crystalline fluoroquinolone arginine salt form” (Wockhardt Limited, priority 2002, dated 2003).
Where “and” joins values, the source holds several entries; their conditions need not be identical. Identical values can stand only once. Counter-ions that a name gives are not always drawn. Like-named read-outs stand apart in the source and are kept apart here.

Key:
[1] = hygroscopicity / moisture uptake on exposure to humidity, determined gravimetrically; format: physicochemical
dissolution rate = format: physicochemical
[2] = antibacterial minimum inhibitory concentration (MIC); format: cell-based
respiratory pathogens = assay: treating respiratory pathogens
resistant mutants = assay: treating resistant mutants
[3] = system: slow-growing Staphylococci; assay: cidal action against slow-growing Staphylococci; format: cell-based
Staphylococci = assay: eradication of Staphylococci from vital organs and thigh muscle; format: in vivo; conditions: compared with the standard drugs
[4] = system: high density bacterial inoculum; assay: cidal effect with high density bacterial inoculum; format: cell-based; conditions: high density bacterial inoculum (10^8 cfu/ml)
[5] = bulk density determination; format: physicochemical
From the text: Untapped density=25 g/untapped volume.
Tapped density=25 g/Tapped volume.

[6] = mean mass diameter determination by laser diffraction; format: physicochemical; conditions: for Mean mass diameter: laser diffraction, four different samples made by the procedure of example 1, Hydrate
From the text: For mean mass diameter Master Sizer of Malvern Instrument LTD U.K. was used under the conditions listed below:
Analysis model: Polydisperse
Obstruction value: 20-23%

rats = conditions: rat, in vivo, iv
rodents = conditions: in vivo
[7] = in vivo
[8] = system: resistant Staphylococcus aureus
[9] = exposure at a relative humidity of 41%

Compound: CC1CCc2c(N3CCC(O)CC3)c(F)cc3c(=O)c(C(=O)O)cn1c23.N=C(N)NCCC[C@H](N)C(=O)O (racemic) [Example 8, RS-(±)-9-Fluoro-6,7-dihydro-8-(4-hydroxypiperidin-1-yl)-5-methyl-1-oxo-1H,5H-benzo[i,j]quinolizine-2-carboxylic Acid L-Arginine Salt]
- antimicrobial activity (antimicrobial activity): have antimicrobial activity

Compound: CC1CCc2c(N3CCC(O)CC3)c(F)cc3c(=O)c(C(=O)O)cn1c23.N=C(N)NCCC[C@@H](N)C(=O)O (racemic) [Example 9, RS-(±)-9-Fluoro-6,7-dihydro-8-(4-hydroxypiperidin-1-yl)-5-methyl-1-oxo-1H,5H-benzo[i,j]quinolizine-2-carboxylic Acid D-Arginine Salt]
- antimicrobial activity (antimicrobial activity): have antimicrobial activity

Compound: CC1CCc2c(N3CCC(O)CC3)c(F)cc3c(=O)c(C(=O)O)cn1c23.N=C(N)NCCCC(N)C(=O)O (racemic) [R, S-9-fluoro-6,7-dihydro-8-(4-hydroxypiperidin-1-yl)-5-methyl-1-oxo-1H,5H-benzo[i,j]-quinolizine-2-carboxylic acid DL-arginine salt]
- antimicrobial activity (antimicrobial activity): have antimicrobial activity

Compound: C[C@@H]1CCc2c(N3CCC(O)CC3)c(F)cc3c(=O)c(C(=O)O)cn1c23.N=C(N)NCCCC(N)C(=O)O (stereo in doubt) [R-(+)-9-fluoro-6,7-dihydro-8-(4-hydroxypiperidin-1-yl)-5-methyl-1-oxo-1H,5H-benzo[i,j]-quinolizine-2-carboxylic acid DL-arginine salt]
- antimicrobial activity (antimicrobial activity): have antimicrobial activity

Compound: C[C@H]1CCc2c(N3CCC(O)CC3)c(F)cc3c(=O)c(C(=O)O)cn1c23.N=C(N)NCCCC(N)C(=O)O (stereo in doubt) [S-(−)-9-fluoro-6,7-dihydro-8-(4-hydroxypiperidin-1-yl)-5-methyl-1-oxo-1H,5H-benzo[i,j]-quinolizine-2-carboxylic acid DL-arginine salt]
- antimicrobial activity (antimicrobial activity): have antimicrobial activity

Compound: C[C@H]1CCc2c(N3CCC(O)CC3)c(F)cc3c(=O)c(C(=O)O)cn1c23 [Example 1, S-(−)-9-Fluoro-6,7-dihydro-8-(4-hydroxypiperidin-1-yl)-5-methyl-1-oxo-1H,5H-benzo[i,j]quinolizine-2-carboxylic Acid L-Arginine Salt Hydrate]
- hygroscopicity [1]: to a certain degree hygroscopic
- moisture absorption compared with the sodium salt ([1]; at specified humidity levels): less prone than the sodium salt to absorb moisture
- dissolution rate (dissolution rate): acceptable dissolution rate
- antibacterial minimum inhibitory concentration (MIC) values compared with the free acid [2]: same antibacterial minimum inhibitory concentration (MIC) values as the free active ingredient
- retention of potency at acidic pH ([2]; acidic pH of 5.5): unusual ability to retain potency
- effectiveness in treating respiratory pathogens (respiratory pathogens): effective
- effectiveness in treating resistant mutants (resistant mutants): effective
- cidal action [3]: superior cidal action
- eradication efficacy (Staphylococci): scores over the standard drugs
- cidal effect [4]: unusual superior cidal effect
- bulk density (tapped) ([5]; 25 gm/tapped volume, tapped 150 times): 0.64 g/mL
- bulk density (untapped) ([5]; 25 gm/untapped volume): 0.57 g/mL
- Mean mass diameter [6]: 32.92 μm and 24.22 μm and 34.51 μm and 39.07 μm
- Mean mass diameter ([6]; listed as S-(−)-9-fluoro-6,7-dihydro-8-(4-hydroxypiperidin-1-yl)-5-methyl-1-oxo-1H,5H-benz): less than or equal to 40 μm
- Mean mass diameter, mean value ([6]; mean of four samples of Table 1): 32.68 μm
- propensity to cause phlebitis (rats): lower propensity to cause phlebitis than the sodium and potassium salts
- toxicity (rodents): less toxic in rodents than the alkali salt forms
- bioavailability [7]: good bioavailability
- activity against resistant Staphylococcus aureus [8]: potent activity

Compound: C[C@H]1CCc2c(N3CCC(O)CC3)c(F)cc3c(=O)c(C(=O)O)cn1c23.N=C(N)NCCC[C@@H](N)C(=O)O [Example 5, S-(−)-9-Fluoro-6,7-dihydro-8-(4-hydroxypiperidin-1-yl)-5-methyl-1-oxo-1H,5H-benzo[i,j]quinolizine-2-carboxylic Acid D-Arginine Salt]
- antimicrobial activity (antimicrobial activity): have antimicrobial activity

Compound: C[C@@H]1CCc2c(N3CCC(O)CC3)c(F)cc3c(=O)c(C(=O)O)cn1c23.N=C(N)NCCC[C@H](N)C(=O)O [Example 6, R-(+)-9-Fluoro-6,7-dihydro-8-(4-hydroxypiperidin-1-yl)-5-methyl-1-oxo-1H,5H-benzo[i,j]quinolizine-2-carboxylic Acid L-Arginine Salt]
- antimicrobial activity (antimicrobial activity): have antimicrobial activity

Compound: C[C@@H]1CCc2c(N3CCC(O)CC3)c(F)cc3c(=O)c(C(=O)O)cn1c23.N=C(N)NCCC[C@@H](N)C(=O)O [Example 7, R-(+)-9-Fluoro-6,7-dihydro-8-(4-hydroxypiperidin-1-yl)-5-methyl-1-oxo-1H,5H-benzo[i,j]quinolizine-2-carboxylic Acid D-Arginine Salt]
- antimicrobial activity (antimicrobial activity): have antimicrobial activity

Compound: S-(−)-9-fluoro-6,7-dihydro-8-(4-hydroxypiperidin-1-yl)-5-methyl-1-oxo-1H,5H-benzo[i,j]quinolizine-2-carboxylic acid [reference compound]
- antimicrobial activity compared with the R-(+)- and RS- acids (antimicrobial activity): more potent antimicrobial activity

Compound: S-(−)-9-fluoro-6,7-dihydro-8-(4-hydroxypiperidin-1-yl)-5-methyl-1-oxo-1H,5H-benzo[i,j]quinolizine-2-carboxylic acid, L-arginine salt 0.25 hydrate [reference compound]
- hygroscopicity [1, 9]: highly hygroscopic and turn into syrups

Compound: S-(−)-9-fluoro-6,7-dihydro-8-(4-hydroxypiperin-1-yl)-5-methyl-1-oxo-1H,5H-benzo[i,j]quinolizine-2-carboxylic acid, L-arginine salt, 0.75 hydrate [reference compound]
- hygroscopicity [1, 9]: highly hygroscopic and turn into syrups
